Data on one compound can be found in article PMC5218480 (PLoS ONE, 2017).

The assay has as its system MV-4-11 cells. The assay is described as follows: Gene expression microarray analysis (Affymetrix PrimeView) and GSEA. The class given is cell-based, human. The arrangement: RFU PODN (11730768_x_at) / Fold change /veh PODN (11730768_x_at) / RFU LINC00158 (11744669_a_at) / Fold change /veh LINC00158 (11744669_a_at) / RFU DUSP10 (11751237_a_at) / Fold change /veh DUSP10 (11751237_a_at) / RFU ID3 (11757404_x_at) / Fold change /veh ID3 (11757404_x_at) / RFU PLEKHG5 (11737974_s_at) / Fold change /veh PLEKHG5 (11737974_s_at) / RFU LRRC4B (11730491_at) / Fold change /veh LRRC4B (11730491_at) / RFU GIMAP4 (11747438_a_at) / Fold change /veh GIMAP4 (11747438_a_at) / RFU KRT8 (11758183_x_at) / Fold change /veh KRT8 (11758183_x_at) / RFU CNN1 (11734310_a_at) / Fold change /veh CNN1 (11734310_a_at) / RFU VPS37D (11726825_at) / Fold change /veh VPS37D (11726825_at) / RFU C10orf10 (11716522_x_at) / Fold change /veh C10orf10 (11716522_x_at) / RFU KIR2DL2 /// KIR2DL4 /// KIR2DL5A /// KIR2DL5B /// KIR2DS1 /// KIR2DS2 /// KIR2DS3 /// KIR2DS4 /// KIR3DL3 /// KIR3DL3 /// KIR3DS1 (11738374_at) / Fold change /veh KIR2DL2 /// KIR2DL4 /// KIR2DL5A /// KIR2DL5B /// KIR2DS1 /// KIR2DS2 /// KIR2DS3 /// KIR2DS4 /// KIR3DL3 /// KIR3DL3 /// KIR3DS1 (11738374_at) / RFU C1QL1 (11718748_at) / Fold change /veh C1QL1 (11718748_at) / RFU TMPRSS4 (11747572_a_at) / Fold change /veh TMPRSS4 (11747572_a_at) / RFU HAMP (11756126_x_at) / Fold change /veh HAMP (11756126_x_at) / RFU RNFT2 (11725882_a_at) / Fold change /veh RNFT2 (11725882_a_at) / RFU NR4A2 (11747474_a_at) / Fold change /veh NR4A2 (11747474_a_at) / RFU ABCC12 (11746883_a_at) / Fold change /veh ABCC12 (11746883_a_at) / RFU TMEM136 (11760407_x_at) / Fold change /veh TMEM136 (11760407_x_at) / RFU CLDN22 /// WWC2 (11732394_at) / Fold change /veh CLDN22 /// WWC2 (11732394_at) / RFU HLA-DPB1 (11760878_x_at) / Fold change /veh HLA-DPB1 (11760878_x_at) / RFU SPINT1 (11716480_a_at) / Fold change /veh SPINT1 (11716480_a_at) / RFU GAP43 (11754022_s_at) / Fold change /veh GAP43 (11754022_s_at) / RFU A4GNT (11735810_at) / Fold change /veh A4GNT (11735810_at) / RFU PRB3 (11715151_x_at) / Fold change /veh PRB3 (11715151_x_at) / RFU TUBB4B (11761932_at) / Fold change /veh TUBB4B (11761932_at) / RFU CAPN14 (11732068_a_at) / Fold change /veh CAPN14 (11732068_a_at) / RFU TMCC2 (11721928_a_at) / Fold change /veh TMCC2 (11721928_a_at) / RFU IRGQ (11745062_a_at) / Fold change /veh IRGQ (11745062_a_at) / RFU FAM174B (11720279_a_at) / Fold change /veh FAM174B (11720279_a_at) / RFU TMPRSS4 (11748680_a_at) / Fold change /veh TMPRSS4 (11748680_a_at) / RFU FAM212B (11763350_a_at) / Fold change /veh FAM212B (11763350_a_at) / RFU PLEKHG5 (11743358_a_at) / Fold change /veh PLEKHG5 (11743358_a_at) / RFU ZSCAN30 (11745921_a_at) / Fold change /veh ZSCAN30 (11745921_a_at) / RFU CMKLR1 (11741424_a_at) / Fold change /veh CMKLR1 (11741424_a_at) / RFU LOC101060620 /// MAPK8IP1 (11723275_at) / Fold change /veh LOC101060620 /// MAPK8IP1 (11723275_at) / RFU SPTSSB (11747773_x_at) / Fold change /veh SPTSSB (11747773_x_at) / RFU PRSS12 (11739890_at) / Fold change /veh PRSS12 (11739890_at) / RFU BIN1 (11741810_x_at) / Fold change /veh BIN1 (11741810_x_at) / RFU WNT11 (11732464_a_at) / Fold change /veh WNT11 (11732464_a_at) / RFU C10orf10 (11716521_a_at) / Fold change /veh C10orf10 (11716521_a_at) / RFU C5orf56 (11738089_at) / Fold change /veh C5orf56 (11738089_at) / RFU CYB561 (11721691_x_at) / Fold change /veh CYB561 (11721691_x_at) / RFU ANKRD19P (11752326_a_at) / Fold change /veh ANKRD19P (11752326_a_at) / RFU OR2T12 /// OR2T33 /// OR2T8 (11738714_s_at) / Fold change /veh OR2T12 /// OR2T33 /// OR2T8 (11738714_s_at) / RFU VCAN (11748164_a_at) / Fold change /veh VCAN (11748164_a_at) / RFU JSRP1 (11732532_at) / Fold change /veh JSRP1 (11732532_at) / RFU KRTAP10-11 (11738290_x_at) / Fold change /veh KRTAP10-11 (11738290_x_at) / RFU MYO3A (11730013_a_at) / Fold change /veh MYO3A (11730013_a_at) / RFU EBF3 (11725865_a_at) / Fold change /veh EBF3 (11725865_a_at) / RFU CAMK2N1 (11719241_x_at) / Fold change /veh CAMK2N1 (11719241_x_at) / RFU C5orf56 (11738088_a_at) / Fold change /veh C5orf56 (11738088_a_at) / RFU OLFML3 (11715873_a_at) / Fold change /veh OLFML3 (11715873_a_at) / RFU LOC100653217 /// NTM (11731650_a_at) / Fold change /veh LOC100653217 /// NTM (11731650_a_at) / RFU MAPK11 (11762145_a_at) / Fold change /veh MAPK11 (11762145_a_at) / RFU FIZ1 (11724087_x_at) / Fold change /veh FIZ1 (11724087_x_at) / RFU OASL (11726364_x_at) / Fold change /veh OASL (11726364_x_at) / RFU SOX15 (11748057_x_at) / Fold change /veh SOX15 (11748057_x_at) / RFU CD79A (11719716_a_at) / Fold change /veh CD79A (11719716_a_at) / RFU HIST1H1D (11736915_at) / Fold change /veh HIST1H1D (11736915_at) / RFU CASKIN2 (11723855_a_at) / Fold change /veh CASKIN2 (11723855_a_at) / RFU LOC730098 (11760151_x_at) / Fold change /veh LOC730098 (11760151_x_at) / RFU OR4N2 (11742367_at) / Fold change /veh OR4N2 (11742367_at) / RFU PRRT2 (11749266_a_at) / Fold change /veh PRRT2 (11749266_a_at) / RFU SNX32 (11753110_a_at) / Fold change /veh SNX32 (11753110_a_at) / RFU CDHR5 (11726645_a_at) / Fold change /veh CDHR5 (11726645_a_at) / RFU RCAN1 (11760418_a_at) / Fold change /veh RCAN1 (11760418_a_at) / RFU FAM167A (11723789_a_at) / Fold change /veh FAM167A (11723789_a_at) / RFU FAM26E (11764081_at) / Fold change /veh FAM26E (11764081_at) / RFU ISYNA1 (11749810_s_at) / Fold change /veh ISYNA1 (11749810_s_at) / RFU ACY1 (11761880_at) / Fold change /veh ACY1 (11761880_at) / RFU 11764098_at / Fold change /veh 11764098_at / RFU SAMD14 (11745864_x_at) / Fold change /veh SAMD14 (11745864_x_at) / RFU NPB (11741838_a_at) / Fold change /veh NPB (11741838_a_at) / RFU TMPRSS6 (11731388_a_at) / Fold change /veh TMPRSS6 (11731388_a_at) / RFU KRTAP10-2 (11738614_at) / Fold change /veh KRTAP10-2 (11738614_at) / RFU ARHGAP8 /// PRR5-ARHGAP8 (11727945_x_at) / Fold change /veh ARHGAP8 /// PRR5-ARHGAP8 (11727945_x_at) / RFU KRTAP5-7 /// NADSYN1 (11734609_at) / Fold change /veh KRTAP5-7 /// NADSYN1 (11734609_at) / RFU RASL12 (11751679_a_at) / Fold change /veh RASL12 (11751679_a_at) / RFU CDKN2B (11736163_a_at) / Fold change /veh CDKN2B (11736163_a_at) / RFU PRF1 (11729649_at) / Fold change /veh PRF1 (11729649_at) / RFU, ZNF638 /// ZNF638-IT1 / Fold change vs veh, ZNF638 /// ZNF638-IT1 / RFU, PANK3 / Fold change vs veh, PANK3 / RFU, SH3YL1 / Fold change vs veh, SH3YL1 / RFU, ZEB2 / Fold change vs veh, ZEB2 / RFU, NRIP1 / Fold change vs veh, NRIP1 / RFU, PTTG1IP / Fold change vs veh, PTTG1IP / RFU, CAPN2 / Fold change vs veh, CAPN2 / RFU, MED14 / Fold change vs veh, MED14 / RFU, SNORA58 / Fold change vs veh, SNORA58 / RFU, C1orf63 / Fold change vs veh, C1orf63 / RFU, LRRFIP1 / Fold change vs veh, LRRFIP1 / RFU, NDUFAF7 / Fold change vs veh, NDUFAF7 / RFU, SLC12A2 / Fold change vs veh, SLC12A2 / RFU, IBTK / Fold change vs veh, IBTK / RFU, ESF1 / Fold change vs veh, ESF1 / Fold change vs veh, TMEM50B / RFU, TAOK1 / Fold change vs veh, TAOK1 / RFU, ACBD3 / Fold change vs veh, ACBD3 / RFU, TMA16 / Fold change vs veh, TMA16 / RFU, RWDD3 / Fold change vs veh, RWDD3 / RFU, BCAT1 / Fold change vs veh, BCAT1 / RFU, EDEM3 / Fold change vs veh, EDEM3 / RFU, TMEM33 / Fold change vs veh, TMEM33 / RFU, WDR75 / Fold change vs veh, WDR75 / RFU, AHCTF1 / Fold change vs veh, AHCTF1 / RFU, TFRC / Fold change vs veh, TFRC / RFU, ZDHHC17 / Fold change vs veh, ZDHHC17 / RFU, NOM1 / Fold change vs veh, NOM1 / RFU, ARL8B / Fold change vs veh, ARL8B / RFU, ZBTB11 / Fold change vs veh, ZBTB11 / RFU, TAMM41 / Fold change vs veh, TAMM41 / RFU, KIAA1704 /// LOC100996395 / Fold change vs veh, KIAA1704 /// LOC100996395 / RFU, ING1 / Fold change vs veh, ING1 / RFU, TRMT61B / Fold change vs veh, TRMT61B / RFU, FUBP3 / Fold change vs veh, FUBP3 / RFU, TP53 / Fold change vs veh, TP53 / RFU, TNKS2 / Fold change vs veh, TNKS2 / RFU, ZFP14 / Fold change vs veh, ZFP14 / RFU, ACTR2 / Fold change vs veh, ACTR2 / RFU, PPP3R1 / Fold change vs veh, PPP3R1 / RFU, PIK3R1 / Fold change vs veh, PIK3R1 / RFU, HNRNPA1 / Fold change vs veh, HNRNPA1 / RFU, RNF170 / Fold change vs veh, RNF170 / RFU, ZNF28 / Fold change vs veh, ZNF28 / RFU, RNGTT / Fold change vs veh, RNGTT / RFU, OGT / Fold change vs veh, OGT / RFU, BRD1 / Fold change vs veh, BRD1 / RFU, MARS / Fold change vs veh, MARS / RFU, ZNF655 / Fold change vs veh, ZNF655 / RFU, FAHD1 / Fold change vs veh, FAHD1 / RFU, BDP1 / Fold change vs veh, BDP1 / RFU, LRRCC1 / Fold change vs veh, LRRCC1 / RFU, ARID1A / Fold change vs veh, ARID1A / RFU, ZNF146 / Fold change vs veh, ZNF146 / RFU, ZNF330 / Fold change vs veh, ZNF330 / RFU, GPN3 / Fold change vs veh, GPN3 / RFU, C9orf123 / Fold change vs veh, C9orf123 / RFU, N4BP2L2 / Fold change vs veh, N4BP2L2 / RFU, ARFIP1 / Fold change vs veh, ARFIP1 / RFU, FAM179B / Fold change vs veh, FAM179B / RFU, BCL10 / Fold change vs veh, BCL10 / RFU, UHRF1BP1L / Fold change vs veh, UHRF1BP1L / RFU, BET1 / Fold change vs veh, BET1 / RFU, CNOT2 / Fold change vs veh, CNOT2 / RFU, ZNF268 / Fold change vs veh, ZNF268 / Fold change vs veh, ZNF507 / RFU, DGCR2 / Fold change vs veh, DGCR2 / RFU, WDSUB1 / Fold change vs veh, WDSUB1 / Fold change vs veh, HSP90B1 /// MIR3652 / RFU, ADSS / Fold change vs veh, ADSS / RFU, GK / Fold change vs veh, GK / RFU, ZNF148 / Fold change vs veh, ZNF148 / RFU, TAF9 / Fold change vs veh, TAF9 / RFU, SLC1A5 / Fold change vs veh, SLC1A5 / RFU, SLMO2 / Fold change vs veh, SLMO2 / RFU, ABCC4 / Fold change vs veh, ABCC4 / RFU, LOC101060439 /// RAP1B / Fold change vs veh, LOC101060439 /// RAP1B / RFU, RFX7 / Fold change vs veh, RFX7 / RFU, GTPBP10 / Fold change vs veh, GTPBP10 / RFU, CNEP1R1 / Fold change vs veh, CNEP1R1 / RFU, BIVM-ERCC5 /// ERCC5 / Fold change vs veh, BIVM-ERCC5 /// ERCC5 / RFU, ILF3 / Fold change vs veh, ILF3 / RFU 11762660_at / Fold change /veh 11762660_at / RFU VCAN (11757783_s_at) / Fold change /veh VCAN (11757783_s_at) / RFU DDX43 (11728927_at) / Fold change /veh DDX43 (11728927_at) / RFU KRT8 (11758188_x_at) / Fold change /veh KRT8 (11758188_x_at) / RFU NKD1 (11759106_at) / Fold change /veh NKD1 (11759106_at) / RFU SRD5A1 (11742802_a_at) / Fold change /veh SRD5A1 (11742802_a_at) / RFU TPSAB1 /// TPSB2 (11721975_s_at) / Fold change /veh TPSAB1 /// TPSB2 (11721975_s_at) / RFU GSTM3 (11746129_a_at) / Fold change /veh GSTM3 (11746129_a_at) / RFU IL23R (11737362_x_at) / Fold change /veh IL23R (11737362_x_at) / RFU TMEM51 (11727254_a_at) / Fold change /veh TMEM51 (11727254_a_at) / RFU PIWIL2 (11732686_x_at) / Fold change /veh PIWIL2 (11732686_x_at) / RFU ORM1 (11744905_x_at) / Fold change /veh ORM1 (11744905_x_at) / RFU CCDC152 (11743942_at) / Fold change /veh CCDC152 (11743942_at) / RFU ECM1 (11717891_a_at) / Fold change /veh ECM1 (11717891_a_at) / RFU IL23R (11748794_a_at) / Fold change /veh IL23R (11748794_a_at) / RFU TNFAIP8L3 (11732012_x_at) / Fold change /veh TNFAIP8L3 (11732012_x_at) / RFU MBOAT4 (11741988_at) / Fold change /veh MBOAT4 (11741988_at) / RFU 11764193_at / Fold change /veh 11764193_at / RFU TMEM53 (11763286_at) / Fold change /veh TMEM53 (11763286_at) / RFU MAGEB2 (11727129_at) / Fold change /veh MAGEB2 (11727129_at) / RFU TMEM200A (11744735_a_at) / Fold change /veh TMEM200A (11744735_a_at) / RFU CCDC152 (11751479_a_at) / Fold change /veh CCDC152 (11751479_a_at) / RFU FAM211A (11726209_a_at) / Fold change /veh FAM211A (11726209_a_at) / RFU RGS16 (11746705_a_at) / Fold change /veh RGS16 (11746705_a_at) / RFU VCAN (11755009_s_at) / Fold change /veh VCAN (11755009_s_at) / RFU RHOB (11743442_s_at) / Fold change /veh RHOB (11743442_s_at) / RFU RGS16 (11720943_a_at) / Fold change /veh RGS16 (11720943_a_at) / RFU RGS16 (11720944_at) / Fold change /veh RGS16 (11720944_at) / RFU, VPS4B / Fold change vs veh, VPS4B / RFU, CREB1 / Fold change vs veh, CREB1 / RFU, DNAJC13 / Fold change vs veh, DNAJC13 / RFU, GNAQ / Fold change vs veh, GNAQ / RFU, CDK5R1 / Fold change vs veh, CDK5R1 / RFU, ZRANB3 / Fold change vs veh, ZRANB3 / RFU, CUL4A / Fold change vs veh, CUL4A / RFU, CCNY / Fold change vs veh, CCNY / RFU, UFL1 / Fold change vs veh, UFL1 / RFU, COG3 / Fold change vs veh, COG3 / RFU, DIAPH2 / Fold change vs veh, DIAPH2 / RFU, SKA2 / Fold change vs veh, SKA2 / RFU, AFF3 / Fold change vs veh, AFF3 / RFU, LMF1 / Fold change vs veh, LMF1 / RFU, IPO11 / Fold change vs veh, IPO11 / RFU, DFFB / Fold change vs veh, DFFB / RFU, FOXP1 / Fold change vs veh, FOXP1 / RFU, CARD8 / Fold change vs veh, CARD8 / RFU, STRN3 / Fold change vs veh, STRN3 / RFU, ADK / Fold change vs veh, ADK / RFU, RASSF2 / Fold change vs veh, RASSF2 / RFU, WIPF1 / Fold change vs veh, WIPF1 / RFU, LARP1B / Fold change vs veh, LARP1B / RFU, RASA1 / Fold change vs veh, RASA1 / RFU, RB1 / Fold change vs veh, RB1 / RFU, PPFIA1 / Fold change vs veh, PPFIA1 / RFU, MAT2A / Fold change vs veh, MAT2A / RFU, CCT5 / Fold change vs veh, CCT5 / RFU, WDR92 / Fold change vs veh, WDR92 / RFU, CUX1 / Fold change vs veh, CUX1 / RFU, TTC7A / Fold change vs veh, TTC7A / RFU, TMEM135 / Fold change vs veh, TMEM135 / RFU, DEPTOR / Fold change vs veh, DEPTOR / RFU, CPM / Fold change vs veh, CPM / RFU, DNAJB6 / Fold change vs veh, DNAJB6 / RFU, CACNA2D3 / Fold change vs veh, CACNA2D3 / RFU, DTX4 / Fold change vs veh, DTX4 / RFU, TFCP2 / Fold change vs veh, TFCP2 / RFU, GMCL1 /// GMCL1P1 / Fold change vs veh, GMCL1 /// GMCL1P1 / RFU, AEBP2 / Fold change vs veh, AEBP2 / RFU, SNHG1 /// SNORD22 /// SNORD25 /// SNORD26 /// SNORD27 /// SNORD28 /// SNORD29 /// SNORD31 / Fold change vs veh, SNHG1 /// SNORD22 /// SNORD25 /// SNORD26 /// SNORD27 /// SNORD28 /// SNORD29 /// SNORD31 / Fold change (Aza/veh), C12orf56 (ProbeSet 11735607_a_at) / Fold change (ACY-1035/veh), C12orf56 (ProbeSet 11735607_a_at) / Fold change (Aza/veh), FGFR1OP (ProbeSet 11751329_s_at) / Fold change (ACY-1035/veh), FGFR1OP (ProbeSet 11751329_s_at) / Fold change (Aza/veh), VPS36 (ProbeSet 11739960_a_at) / Fold change (ACY-1035/veh), VPS36 (ProbeSet 11739960_a_at) / RFU SYPL1 (11715823_x_at) / Fold change /veh SYPL1 (11715823_x_at) / RFU IGFBP7 (11715501_s_at) / Fold change /veh IGFBP7 (11715501_s_at) / RFU REEP3 (11722064_at) / Fold change /veh REEP3 (11722064_at) / RFU IGLL1 (11728026_x_at) / Fold change /veh IGLL1 (11728026_x_at): dose or concentration left out as unconfirmed. The settings on record: MV-4-11 cells, 48 hours.

Take `Nc1ncn([C@@H]2O[C@H](CO)[C@@H](O)[C@H]2O)c(=O)n1` [azacitidine]: the “RFU CNN1 (11734310_a_at)” value was 25.48 RFU.
